“Also recorded” adds a separate entry of the source. Read-outs that look alike come from different tables or passages of the source.
Columns and labels:
HT1080 cells = conditions: cited from earlier work
[1] = system: A375 metastatic melanoma xenograft; assay: In vivo xenograft melanoma (A375 cells in nude mice)
Method: FIG. 4. Compound 2 inhibited the tumor growth of human melanoma in vivo. Metastatic melanoma A375 cells were injected into male nude mice subcutaneously on the flank. Compound 2 was administered i.p. daily at the dose of 5 mg/kg. The growth of the tumor was measured daily, and tumor volume was measured by digital calipers and determined using the formula (mm^3)=[L×(W2)]/2. Tumor growth was presented as a fold of increase in size (mean±SD). *, p<0.05 compared to control (N=7; Compound 2 group, N=5).
The Institutional Animal Care and Use Committee approved all the animal procedures at Chapman University (IACUC #2020-1131). Male nude mice (Nu/Nu) were purchased from Charles River and were housed and maintained in the Chapman University vivarium under pathogen-free conditions. Human A375 metastatic melanoma cells were injected subcutaneously into the mouse's flank (1×10^6 cells per mouse). Three days-post tumor cell injection, mice were randomized into different groups. The treatment group was injected with compound 2 (5 mg/kg/day, i.p.) for 21 days. The growth of the tumors was monitored three times a week and measured using digital Vernier calipers. The size of the tumors was calculated as tumor volume (mm^3)=[L×(W2)]/2. The mice were sacrificed at the end of the experiment.
(§1) Given the limited water solubility, lead compound 2 (in DMSO) was further diluted in normal saline, the drug suspension, and sonicated at room temperature for 15 min. before injection to nude mice. […] The drug suspension was made fresh daily and injected into mice immediately after the compounding.

[2] = system: human melanoma A375 and SK-Mel-28 cells; assay: MTT cytotoxicity in human melanoma A375 and SK-Mel-28 cells (Table 1); type: cell-based; conditions: for IC50: read-out: IC50 (50% inhibition of cell survival), MTT assay; for anti-melanoma activity (MTT): in words
Description: (§2) All the cells were passaged once reaching 70-90% confluence.
(§3) (MTT) metabolized by alive cells.

AP-1 transactivation = assay: Luciferase assay to determine AP-1 transactivation activities in A375 cells; type: cell-based, human; conditions: for inhibition of H2O2-activated AP-1 transactivation: compound 10 μM
Description: FIG. 3. Inhibition of AP-1 transcriptional activation in human melanoma A375 cells by compound 2. A375 cells were transfected with an AP-1 luciferase reporter plasmid. […] After treatments, the cells were harvested to determine the luciferase activity, expressed as a fold of control without any treatment. The results normalized by cell numbers represent means±S.D of triplicates. *, p<0.05 compared to control; **, p<0.05 compared to H2O2-treatment.
3×AP1pGL3 (3×AP-1 in pGL3-basic; Addgene plasmid #40342), which contains three canonical AP-1 binding sites (TGACTCA) upstream of a minimal promoter fragment containing a TATA box in the luciferase reporter plasmid pGL3-basic. 3×AP1pGL3 was transfected to human melanoma A375 cells using Lipofectamine 2000 following the manufacturer's instructions (Invitrogen). […]
After different treatments, the cells were rinsed twice with phosphate-buffered saline (PBS). Cells were then scraped from the plates in PBS and pelleted for 4 min at 4° C. in a microcentrifuge at 12,000 rpm. Cell pellets were resuspended in 100 μL luciferase lysis buffer for luciferase assay as described (Promega). Luciferase activity measured in relative light units reflects the AP-1 transcription rate and was detected by a SpectraMax M5 UV VIZ Plate Reader. Cell count was conducted for normalization. All the samples were studied in duplicate, and readings were taken in triplicate. Each experiment was repeated at least two times.

[3] = HPLC analysis of the drug suspension after compounding; type: physicochemical; conditions: DMSO solution diluted in normal saline, sonicated 15 min at room temperature
Method: as §1

[4] = system: Hermes 4A melanoblast cells; assay: MTT cell viability assay, Hermes 4A melanoblast cells; type: cell-based, human; conditions: 72 h treatment
Description: as §3

[5] = system: Hermes 3A melanoblast cells; assay: MTT cell viability assay, Hermes 3A melanoblast cells; type: cell-based, human; conditions: 72 h treatment
Description: as §3

[6] = system: Hermes 1 melanoblast cells; conditions: 72 h
Sk-Mel-28 melanoma cells = conditions: read-out: IC50, cell viability; Sk-Mel-28 cells, MTT, 72 h
Method: Human malignant melanoma cells (A375, CRL-1619™; Sk-Mel-28, HTB-72™) were purchased from ATCC®. Cells were cultured in Dulbecco's Modified Eagle Medium (DMEM) (ATCC #30-2002) or Eagles' Minimum Essential Medium (EMEM) (ATCC #30-2003) supplemented with 10% fetal bovine serum (FBS) (ATCC #30-2020) at 37° C. in 5% CO2 incubator. All the cells were passaged once reaching 70-90% confluence.

[7] = Water solubility: drug precipitation in the media; type: physicochemical
A375 melanoma cells = assay: MTT cell viability assay, A375 melanoma cells; type: cell-based, human; conditions: for cell viability: 1 μM, A375 cells (FIG. 2C), control = vehicle 0.1% DMSO
Description: as §2, §3

[8] = system: human breast cancer cells; conditions: collective cell migration; chemo-invasion and colony formation with docetaxel; cited from earlier work
[9] = Phase I trial, cited from earlier work
melanoma cell lines = assay: Toxicity of PNRI-299 in the inventors' tested melanoma cell lines; type: cell-based
[10] = 72 h, human melanoma A375 and SK-Mel-28 cells (compound 11: average of the two lines)

O=C(O)c1cc2cccc([N+](=O)[O-])c2[nH]1 [CRT0044876]
concentration up to which no toxicity was seen (HT1080 cells; HT1080 cells, CRT0044876 alone): > 400 µM
concentration at which synergistic enhancement of methyl methanesulphonate cytotoxicity was evident (HT1080 cells): 200 µM

O=C(/C=C/c1ccccc1)NCCCCCCCCCCCCNC(=O)/C=C/c1ccccc1 [Compound 2, (2E,2′E)-N,N′-(Dodecane-1,12-diyl)bis(3-phenylacrylamide)]
tumor size ([1]; 5 mg/kg i.p. daily, after 21-day treatment, nude mice): 44.7 % of control
systemic toxicity ([1]; 5 mg/kg i.p. daily, nude mice): without producing any apparent systemic toxicities; also recorded: no significant systemic toxicity observed
tumor growth inhibition compared to the control group ([1]; 5 mg/kg i.p., xenograft mouse model): 44.7%
dose dependence of cytotoxicity ([2]; MTT, 72 h): Cytotoxicity is not dose-
H2O2-activated AP-1 activity (luciferase) (AP-1 transactivation; compound 0.5 μM, H2O2 100 μM, 48 h, H2O2 alone 2.3-fold of control): 95.7 % of control
inhibition of basal AP-1 dependent transcription (AP-1 transactivation; without H2O2): did not display any inhibition
chemical stability after compounding [3]: no evidence of chemical structural change after compounding
cytotoxicity [4]: no significant cytotoxicity
cytotoxicity [5]: no significant cytotoxicity
cytotoxicity ([6]; human): more sensitive to compound 2, but the cytotoxicity was not elevated with increasing the concentrations

O=C(/C=C/c1ccc(O)cc1)NCCCCCCCCCCCCNC(=O)/C=C/c1ccc(O)cc1 [Compound 4]
IC50 [2, 10]: > 10000 nM
anti-melanoma activity (MTT) [2]: significant loss of anti-tumor activity compared to compound 2

O=C(/C=C/c1ccc(O)cc1)NCCCCCCNC(=O)/C=C/c1ccc(O)cc1 [Compound 5, (2E,2′E)-N,N′-(Hexane-1,6-diyl)bis(3-(4-hydroxyphenyl)acrylamide)]
IC50 ([2]; Homo sapiens, 72 h): > 50000 nM
anti-melanoma activity (MTT) [2]: loss of anti-melanoma activity compared to compound 2

O=C(/C=C/c1cccc(O)c1)NCCCCCCCCCCCCNC(=O)/C=C/c1cccc(O)c1 [Compound 7, (2E,2′E)-N,N′-(dodecane-1,12-diyl)bis(3-(3-hydroxyphenyl)acrylamide)]
IC50 ([2]; Homo sapiens, 72 h): > 10000 nM
anti-melanoma activity (MTT) [2]: significant loss of anti-tumor activity compared to compound 2

NCCCCCCCCCCCCNC(=O)/C=C/c1cccc(O)c1 [Compound 8, (E)-N-(12-Aminododecyl)-3-(3-hydroxyphenyl) acrylamide]
IC50 ([2]; Homo sapiens, 72 h): > 25000 nM

O=C(/C=C/c1ccccc1)NCCCCCCCCCCCCNC(=O)/C=C/c1cccc(O)c1 [Compound 9, (E)-N-(12-Cinnamamidododecyl)-3-(3-hydroxyphenyl) acrylamide]
IC50 ([2]; Homo sapiens, 72 h): > 10000 nM
anti-melanoma activity (MTT) [2]: poor anti-melanoma activity

NCCCCCCCCCCCCNC(=O)C=Cc1ccccc1 [Compound 10, N-(12-Aminododecyl)cinnamamide]
IC50 ([2]; Homo sapiens, 72 h): > 25000 nM

O=C(C=Cc1ccccc1)NCCCCCCCCCCCCNC(=O)/C=C/c1ccc(O)cc1 [Compound 11, (E)-N-(12-Cinnamamidododecyl)-3-(4-hydroxyphenyl) acrylamide]
IC50 (Sk-Mel-28 melanoma cells): 70 nM
IC50 [2, 10]: 79 ± 13 nM
anti-melanoma activity (MTT) [2]: potent cytotoxic effect
inhibition of H2O2-activated AP-1 transactivation (AP-1 transactivation; H2O2 100 μM, 48 h): failed to inhibit
precipitation concentration relative to compound 2 [7]: approximately 8 folds
water solubility and stability ([7]; compared to compound 2): improved water solubility and stability compared to compound 2
concentration at which drug precipitation was evident ([7]; in the media): -20 µM
cell viability (A375 melanoma cells): 19 % of control
IC50 (A375 melanoma cells; A375 cells, MTT, 72 h): 88 nM
IC50 ([6]; read-out: IC50, cell viability, Hermes 1 melanoblast cells, MTT): 274 nM

O=C(/C=C/c1ccccc1)NCCCCCCNC(=O)/C=C/c1ccccc1 [Compound 12, (2E,2′E)-N,N′-(hexane-1,6-diyl)bis(3-phenylacrylamide)]
IC50 ([2]; Homo sapiens, 72 h): > 10000 nM

CCCCCCCCC/C(=C\C1=C(C)C(=O)C(OC)=C(OC)C1=O)C(=O)O [Compound E3330]
inhibition of H2O2-activated AP-1 transactivation (AP-1 transactivation; H2O2 100 μM, 48 h): only reduced the AP-1 activity marginally, which was not statistically significant
cell viability (A375 melanoma cells): 102.6 % of control
concentration at which inhibitory activity was evident [8]: 50 µM
patients with disease stabilization for ≥4 cycles ([9]; cancer patients): six of nineteen
duration of treatment with stable disease, one melanoma patient [9]: 245 days

N#Cc1cccc(-n2c(=O)n3n(c2=O)C(C(=O)NCc2ccccc2)=CC(=O)C3)c1 [PNRI-299]
concentration up to which neither toxicity nor synergistic effects were observed (melanoma cell lines): > 100 µM
